Data from patent US10526646B2, “Chromogenic peroxidase substrates” (Dako Denmark A/S, priority 2015, dated 2020).

Target: T1, HRP (Armoracia rusticana, UniProt P00433)
T1 construct: purchased Dako K4061
T1 sequence (P00433 31-338): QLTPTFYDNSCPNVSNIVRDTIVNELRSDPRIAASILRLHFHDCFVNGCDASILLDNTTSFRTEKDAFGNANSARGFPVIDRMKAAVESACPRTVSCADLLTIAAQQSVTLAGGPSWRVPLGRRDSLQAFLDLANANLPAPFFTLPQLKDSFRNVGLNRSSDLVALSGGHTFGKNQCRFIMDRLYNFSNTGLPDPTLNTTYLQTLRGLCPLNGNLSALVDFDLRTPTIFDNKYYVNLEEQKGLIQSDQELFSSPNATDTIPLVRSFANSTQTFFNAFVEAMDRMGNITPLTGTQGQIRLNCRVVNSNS
Experiment: IHC staining of FFPE human tissues and Her2 control cell lines, Envision+ Dual link HRP visualization, DAB as reference
Parameters: species or system horse radish
Conditions: very high expression targets; trained observers

SMILES | staining in the high expression range
Nc1ccc(-c2ccc(N)c(N)c2)cc1N [DAB, 3,3′-diaminobenzidine, reference compound] | tended to over-stain and blackout morphological details

Target: T1, HRP
Experiment: Triple immunohistochemical staining (Ki67, CD20, Her2) on Dako Autostainer
Parameters: species or system horse radish
Conditions: 0.5 mM conjugate, 50 mM imidazole:HCl pH 6.8, 0.003% hydrogen peroxide, 2.5% NMP, 5 min
Description: The exemplary triple staining method employed DAB in combination with Compounds 2 and 8, on a Dako Autostainer at room temperature. The steps of the method included: • 1. Blocking of endogenous peroxidase with peroxidase block (Dako S2023), 5 min. • 2. antiKi67 RTU antibody (Dako IR626), 20 mm • 3. Envision+dual Link HRP (Dako K4061), 20 min • 4. DAB (Dako K3468) 5 min. • 5. HRP quenching with peroxidase block (Dako S2023) with addition of 5 mg/mL alphacyano cinnamic acid, 5 min. • 6. antiCD20cy RTU antibody (Dako IR604), 20 min • 7. Envision+dual Link HRP (Dako K4061), 20 min • 8. 0.5 mM compound 2 in 50 mM imidazole: HCl pH 6.8, 0.003% hydrogen peroxide and 2.5% NMP, 5 min. • 9. HRP quenching with peroxidase block (Dako S2023) with addition of 5 mg/mL alphacyano cinnamic acid, 5 min. • 10. antiHer2 (Dako vial ST301 from HercepTest kit SK001) 20 min. • 11. Envision+dual Link HRP (Dako K4061), 20 min • 12. 0.5 mM compound 8 in 50 mM imidazole: HCl pH 6.8, 0.003% hydrogen peroxide and 2.5% NMP, 5 min. • 13. Counter stain with haematoxylin (Dako S3301)

SMILES | stain produced in triple staining
Nc1ccc(-c2ccc(N)c(N)c2)cc1N [DAB, 3,3′-diaminobenzidine, reference compound] | brown ki67 nuclear stain

Tested on: not listed separately
Experiment: UV-VIS absorbance maxima of chromogenic conjugates and mixtures
Format: physicochemical
Conditions: not given
Description: “Spectrally narrow” refers to a chromogen having less that 50 nm broadness at its maximum absorbance at half peak height by UV-VIS spectroscopy, measured in +99% water at pH, 6-8 in 10 μM concentration. A “magenta chromogen” is a spectrally narrow chromogen with peak absorbance between 525 and 530 nm, measured in +99% water at pH, 6.0-8.0 in 10 μM concentration. A “greenish-yellow chromogen” is a chromogen with peak absorbance below 475 nm and less than 10% absorbance at 530 nm or above relative to the peak absorbance, measured in +99% water at pH, 6.0-8.0 in 10 μM concentration. A “yellow chromogen” is a chromogen with peak absorbance below 505 nm and less than 10% absorbance at 530 nm or above relative to the peak absorbance, measured in +99% water at pH, 6.0-8.0 in 10 μM concentration. A “cyan chromogen” is a chromogen having maximal absorbance above 615 nm and less than 10% relative absorbance at any wavelength between 530 and 400 nm relative to the peak absorbance, measured in +99% water at pH, 6.0-8.0 m 10 μM concentration. An “orange chromogen” is a “spectrally narrow” chromogen that has maximum absorbance between 495 and 520 nm, measured in +99% water at pH, 6-8 in 10 μM concentration. A “dichroic chromogen” is a chromogen that has at least two absorbance maxima, separated by a local minimum at least 50 nm wide and one further global minimum between 390 and 700 nm measured in water between pH 6 and 8.

SMILES | colour of the compound as chromogen | Absp nm (max) [nm] | absorbance of Rhodamine 6G secondary amide / ester derivatives [nm]
CC/N=c1\cc2oc3cc(NCC)c(C)cc3c(-c3ccccc3C(=O)N3CCN(C(=O)c4ccc(-c5c6ccc(=O)cc-6oc6cc(O)ccc56)c(C(=O)O)c4)CC3)c-2cc1C [6G compound] | orange | – | –
CN(C)c1ccc2c(-c3ccccc3C(=O)N3CCN(CC(=O)NCCOCCOCCNC(=O)/C=C/c4ccc(O)cc4)CC3)c3ccc(=[N+](C)C)cc-3oc2c1 [Compound 7, TM-Rhodamine-Pip-L12-Cou] | – | 561 | –
CNCCNC [Compound 34A, N,N′-dimethyl ethylenediamine] | – | – | 531
CC/N=c1\cc2oc3cc(NCC)c(C)cc3c(-c3ccccc3C(=O)N3CCN(C(=O)c4ccccc4-c4c5ccc(=O)cc-5oc5cc(OCC(=O)NCCOCCOCCNC(=O)OC(C)(C)C)ccc45)CC3)c-2cc1C [Formula XIVb] | orange-red color | – | –

More lines, main results first:

colour of the compound as chromogen | Absp nm (max) [nm] | SMILES | absorbance of Rhodamine 6G secondary amide / ester derivatives [nm]
– | 505 | N=c1ccc2c(-c3ccccc3C(=O)OCC(=O)NCCOCCOCCNC(=O)/C=C/c3ccc(O)cc3)c3ccc(N)cc3oc-2c1 [Compound 1, Rhodamine 110-L12-Cou] | –
– | 584 | O=C(/C=C/c1ccc(O)cc1)NCCOCCOCCNC(=O)COC(=O)c1ccccc1C1=c2cc3c4c(c2Oc2c1cc1c5c2CCCN5CCC1)CCC[N+]=4CCC3 [Compound 5, Rhodamine101-L12-Cou] | –
– | 503 | O=C(/C=C/c1ccc(O)cc1)NCCOCCOCCNC(=O)COC(=O)c1ccccc1-c1c2ccc(=O)cc-2oc2cc(O)ccc12 [Compound 10, Flu-L12-Cou] | –
– | 517 | O=C(/C=C/c1ccc(O)cc1)NCCOCCOCCNC(=O)COC(=O)c1ccccc1-c1c2cc(Cl)c(=O)cc-2oc2cc(O)c(Cl)cc12 [Compound 11, 2,7Dichloro-Flu-L12-Cou] | –
– | 508 | O=C(/C=C/c1ccc(O)cc1)NCCOCCOCCNC(=O)CN1CCN(C(=O)c2ccccc2-c2c3ccc(=O)cc-3oc3cc(O)ccc23)CC1 [Compound 12, Flu-Pip-L12-Cou] | –

Same assay, conditions: in neutral water

absorbance maximum [nm] | SMILES
640 | CCN(CC)c1ccc(C(=C2C=CC(=[N+](CC)CC)C=C2)c2cc(OCC(=O)NCCOCCOCCNC(=O)/C=C/c3ccc(O)cc3)c(S(=O)(=O)O)cc2S(=O)(=O)O)cc1 [Compound 35]

Target: T1, HRP
Experiment: Tissue staining with mixtures of chromogens in chromogen buffer
Parameters: species or system horse radish
Conditions: alone

colour of stain of compound alone | SMILES
brownish hue | O=C(/C=C/c1ccc(O)cc1)NCCOCCOCCNC(=O)COC(=O)c1ccccc1-c1c2ccc(=O)cc-2oc2cc(O)ccc12 [Compound 10, Flu-L12-Cou]
